The values that follow come from patent US8431712B2, “Methods for the synthesis of pyridoxamine” (NephroGenex, Inc., priority 2004, dated 2013).

For the experiment, the target named is post-Amadori AGE formation (RNase Amadori). The experiment can be described thus: Post-Amadori inhibitory activity: inhibition of AGE formation from RNase Amadori, detected by ELISA (BST-3CK antibody, DELFIA Europium). The class given is biochemical. As to conditions: for potency at inhibiting post-Amadori AGE formation compared to PM: comparison with pyridoxamine (PM). The protocol:
This example illustrates the activity of the dimer and trimer for inhibiting post-Amadori AGE formation compared to pyridoxamine.
All reactions were done in duplicate All compound stocks were 100 mM in DMSO. All reactions were carried out for 20 hours in 10% DMSO and 0.18 M Phosphate pH 7.4 Reaction volumes were 50 μl. Compound dilutions were first done in 100% DMSO Add to each well: • 20 μl of 0.2 M Phosphate • then 5 μl of compound dilution in 100% DMSO mix • Add 25 μl of 0.2 mg/ml RNase Amadori produced for a final protein concentration in the reaction of 0.1 mg/ml. • After 20 hours the reaction wells were diluted with coating buffer 5 to 50 then 4 to 50 to give a final concentration of 0.8 μg/ml or 40 ng/well. • Coat for two hours • Block one hour • 1 hour with primary antibody BST-3CK @ 1:10,000 • 1 hour with secondary antibody DELFIA Europium GAR @ 0.25 μg/ml (secondary antibody stock is at 660 μg/ml so diluted about 1:2500).
Compounds were tested over the range of concentrations 1000 to 1 μM.
A general note: An ELISA detects its analyte on a solid surface through an enzyme-linked reagent.

Setting [1] is: 20 hours, 10% DMSO, 0.18 M Phosphate pH 7.4, 0.1 mg/ml RNase Amadori, tested 1000 to 1 μM, duplicate.

`Cc1ncc(CO)c(Cc2nc(C)c(O)c(Cc3nc(C)c(O)c(CN)c3CO)c2CO)c1O` [Trimer XX]: the “potency at inhibiting post-Amadori AGE formation compared to PM” value is “more potent than PM”. The midpoint of inhibition under setting [1], the IC50, lay at 0.4 mM.

For `Cc1ncc(CO)c(Cc2nc(C)c(O)c(CN)c2CO)c1O` [Dimer X], the “potency at inhibiting post-Amadori AGE formation compared to PM” value is “more potent than PM”. For the same compound, under setting [1], the IC50 (usually the midpoint of a concentration-inhibition curve) turned out to be 1 mM.

On to `Cc1ncc(CO)c(CN)c1O` [Sigma PM, 4-aminomethyl-3-hydroxy-5-hydroxymethyl-2-methylpyridine, reference compound], for which the IC50 (from previous experiments) amounted to 7 mM.
